Columns and labels:
human CB1R [1] = biological target: T1, human CB1R (Homo sapiens, UniProt P21554); assay: CB1R positive allosteric modulation (PAM) activity, CRE-luciferase reporter in the presence of the orthosteric agonist CP-55,940; assay type: cell-based; settings: for percentage of CB1R activity normalized to 100% stimulation induced by 2.5 µM CP-55,940 alone: HEK293T-CB1-CRE-luc cells, tested at 1, 5, 10 and 25 µg/mL in the presence of 2.5 µM CP-55,940, CB1R activity ≥ 150% is considered CB1R PAM activity; for CB1R PAM activity: result in words, HEK293T-CB1-CRE-luc cells with 2.5 µM CP-55,940
T1 construct: expressed in transfected cells; host or cells: HEK293T (HEK293T-CB1-CRE-Luc)
Procedure: The determination of CB1R activity was carried out using the HEK293T-CB1-CRE-Luc cells stably transfected with the human CB1R cDNA, and a construction of CRE-Luc that contains as promoter six consensus cAMP responsive elements (CRE) linked to firefly luciferase reporter gene. The increase in cAMP levels activates the CRE-Luc system, inducing the expression of the luciferase reporter gene. Briefly, HEK293T-CB1-CRE-Luc cells were cultured in supplemented DMEM (Sigma) medium containing 10% FBS (Gibco) and 1% antibiotics penicillin/streptomycin (Sigma) (DMEM complete medium) and maintained at 37° C in a humidified atmosphere of 5% CO2. The day before the assay 10^4 cells per well were seeded in 96 well-plates and incubated overnight. For determining CB1R positive allosteric modulation (PAM) activity, HEK293T-CB1-CRE-Luc cells were treated with increasing concentrations of the fractions for 30 min and then treated with the CB1R orthosteric agonist CP-55,940 at 2.5 µM. For CB1R agonistic activity, HEK293T-CB1-CRE-Luc cells were treated with increasing concentrations of the fractions. CP-55,940 alone, a CB1R orthosteric agonist, was used at 2.5 µM as positive control of cAMP signaling pathway activated by a CB1R-dependent orthosteric mechanism; and cells without stimulus were used as negative control. In both assays, after 6 h of stimulation, cells were washed twice with PBS 1X and lysed in 100 µL lysis buffer containing 25 mM Tris-phosphate (pH 7.8), 8 mM MgCl2, 1 mM DTT, 1% Triton X-100, and 7% glycerol during 15 min at room temperature in a horizontal shaker. Luciferase activity was measured using a TriStar2 Berthold/LB942 multimode reader (Berthold Technologies) following the instructions of the luciferase assay kit (Promega, Madison, Wl, USA). The RLUs (relative light units) were calculated and: (i) For allosteric activity, results were expressed as percentage of CB1R activity normalized to 100% stimulation induced by 2.5 µM CP-55,940, according to the following formula: Percentage of CB1R activity = 100 * (T - B) / (C - B); where T are the RLUs of the cells treated with the fractions and 2.5 µM CP-55,940; C are the RLUs of the cells treated with CP-55,940 alone, and B are the RLUs of the cells without stimulus. CB1R activity ≥ 150% was considered CB1R PAM activity (ii) For the CB1R agonistic activity, results were expressed as a fold change over non-stimulated cells according to the following formula: Fold change of CB1R activity = T / B; where T are RLUs of the cells treated with the fractions and B are the RLUs of the cells without stimulus. CB1R activity ≥ 2.5-fold increase is considered CB1R agonistic activity.

human CB1R [2] = biological target: T1, human CB1R; assay: CB1R agonistic activity, CRE-luciferase reporter without CP-55,940; assay type: cell-based; settings: HEK293T-CB1-CRE-luc cells, compound alone
Procedure: The determination of CB1R activity was carried out using the HEK293T-CB1-CRE-Luc cells stably transfected with the human CB1R cDNA, and a construction of CRE-Luc that contains as promoter six consensus cAMP responsive elements (CRE) linked to firefly luciferase reporter gene. The increase in cAMP levels activates the CRE-Luc system, inducing the expression of the luciferase reporter gene. Briefly, HEK293T-CB1-CRE-Luc cells were cultured in supplemented DMEM (Sigma) medium containing 10% FBS (Gibco) and 1% antibiotics penicillin/streptomycin (Sigma) (DMEM complete medium) and maintained at 37° C in a humidified atmosphere of 5% CO2. […] Luciferase activity was measured using a TriStar2 Berthold/LB942 multimode reader (Berthold Technologies) following the instructions of the luciferase assay kit (Promega, Madison, Wl, USA). The RLUs (relative light units) were calculated and: (i) For allosteric activity, results were expressed as percentage of CB1R activity normalized to 100% stimulation induced by 2.5 µM CP-55,940, according to the following formula: Percentage of CB1R activity = 100 * (T - B) / (C - B); where T are the RLUs of the cells treated with the fractions and 2.5 µM CP-55,940; C are the RLUs of the cells treated with CP-55,940 alone, and B are the RLUs of the cells without stimulus. […]

T1 sequence (P21554 whole entry): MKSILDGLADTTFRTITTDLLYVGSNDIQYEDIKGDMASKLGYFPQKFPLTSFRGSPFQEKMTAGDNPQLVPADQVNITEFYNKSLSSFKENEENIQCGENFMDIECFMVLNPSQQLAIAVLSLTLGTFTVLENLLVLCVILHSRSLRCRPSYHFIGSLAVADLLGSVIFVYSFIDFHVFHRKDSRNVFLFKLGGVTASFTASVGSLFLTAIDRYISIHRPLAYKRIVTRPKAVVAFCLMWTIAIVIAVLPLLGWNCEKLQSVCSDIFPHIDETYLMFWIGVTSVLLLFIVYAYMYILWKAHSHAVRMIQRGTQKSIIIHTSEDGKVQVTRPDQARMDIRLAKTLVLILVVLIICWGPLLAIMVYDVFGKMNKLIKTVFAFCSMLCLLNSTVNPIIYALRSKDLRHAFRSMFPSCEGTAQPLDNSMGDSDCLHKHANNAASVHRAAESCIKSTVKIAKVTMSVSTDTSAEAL

Structure (SMILES) | percentage of CB1R activity normalized to 100% stimulation induced by 2.5 µM CP-55,940 alone (human CB1R [1]) | CB1R PAM activity (human CB1R [1]) | CB1R PAM activity (human CB1R [1]; listed as Agathadiol) | CB1R agonistic activity on cAMP signaling pathway (human CB1R [2]; at high concentrations, ≥ 2.5-fold increase over non-stimulated cells is considered agonistic) | CB1R agonistic activity on cAMP signaling pathway (human CB1R [2]; at the lower tested concentration)
C=C1CC[C@H]2[C@@](C)(CO)CCC[C@]2(C)[C@H]1CC/C(C)=C/CO [agathadiol, (E)-5-[(1S,4aR,5S,8aR)-5-(hydroxymethyl)-5,8a-dimethyl-2-methylidene-3,4,4a,6,7,8-hexahydro-1H-naphthalen-1-yl]-3-methylpent-2-en-1-ol] | over 1000% | clear CB1R PAM activities at a range of concentrations | increasingly stronger bioactive effect as PAM of CB1R with increasing concentrations | medium CB1R agonistic activity | residual
COc1cc([C@H]2c3cc4c(cc3C[C@@H]3COC(=O)[C@H]32)OCO4)cc(OC)c1OC [deoxypodophyllotoxin, (5S,5aS,8aS)-5-(3,4,5-trimethoxyphenyl)-5a,8,8a,9-tetrahydro-5H-[2]benzofuro[5,6-f][1,3]benzodioxol-6-one] | over 1000% | clear CB1R PAM activities at a range of concentrations |  |  | 

From patent EP4167978B1, “USE OF JUNIPER (JUNIPERUS COMMUNIS) BERRIES EXTRACT, DEOXYPODOP[…] […], AS POSITIVE ALLOSTERIC MODULATORS OF CANNABINOID TYPE 1 RECEPTOR FOR TREATING NEUROPATHIC PAIN AND IN[…]” (Vivacell Biotechnology Espana S.L., priority 2020, dated 2022)
